In ChEMBL document CHEMBL1201862, “PubChem BioAssay data set” (2004):
The source made the active and inactive calls.

Assays:
Leucine aminopeptidase = target: T1, Leucine aminopeptidase (Plasmodium falciparum 3D7, UniProt Q8IL11); assay: P. falciparum M17LAP inhibitors, primary screen, biochemical, fluorogenic H-Leu-NHMec substrate, 1536-well (AID 1619); type: functional
T1 sequence (Q8IL11 whole entry): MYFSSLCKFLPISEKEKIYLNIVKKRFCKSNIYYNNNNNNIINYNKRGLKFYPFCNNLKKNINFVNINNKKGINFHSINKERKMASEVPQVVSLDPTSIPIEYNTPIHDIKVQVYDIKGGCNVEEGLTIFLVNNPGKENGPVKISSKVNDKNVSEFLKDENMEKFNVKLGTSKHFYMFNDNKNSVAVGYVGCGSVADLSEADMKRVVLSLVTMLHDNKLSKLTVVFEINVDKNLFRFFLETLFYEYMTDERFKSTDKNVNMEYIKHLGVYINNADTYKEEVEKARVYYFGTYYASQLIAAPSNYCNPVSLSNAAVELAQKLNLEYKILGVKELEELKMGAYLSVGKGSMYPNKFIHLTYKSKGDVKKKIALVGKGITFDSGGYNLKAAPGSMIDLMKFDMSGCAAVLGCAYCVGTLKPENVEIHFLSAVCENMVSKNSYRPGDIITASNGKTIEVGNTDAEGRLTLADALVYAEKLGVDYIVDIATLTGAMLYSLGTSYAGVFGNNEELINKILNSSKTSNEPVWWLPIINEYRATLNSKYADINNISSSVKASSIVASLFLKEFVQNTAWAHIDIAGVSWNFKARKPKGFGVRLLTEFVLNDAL

Genome polyprotein = Genome polyprotein (dengue virus type 2, UniProt P29990); assay: Dengue-2 NS5 methyltransferase inhibitors, primary screen, biochemical, confirmation dose response (AID 588689); type: functional
Large T antigen = Large T antigen (Simian virus 40, UniProt P03070); type: functional, Betapolyomavirus macacae;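 note: Confirmatory-stage PubChem screen for compounds that inhibit SV40 T antigen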
[1] = target: T2, Polyadenylate-binding protein 1 (Homo sapiens, UniProt P11940); assay: PABP1 MLLE–PAM2 interaction inhibitors, dose response, miRNA deadenylation inhibitor project, biochemical, fluorescence polarization, Cy5-PAM2 peptide, secondary (AID 602260); type: functional; details: read-out: IC50_Mean
[2] = target: T2, Polyadenylate-binding protein 1; assay: PABP1 MLLE–PAM2 binding inhibitor potency, dose response, biochemical, fluorescence polarization, FITC-PAM2 peptide (AID 602259); type: functional; details: read-out: IC50_Mean
[3] = target: T3, Replicative DNA helicase DnaB (Mycobacterium tuberculosis, UniProt P9WMR3); assay: DnaB intein splicing inhibitors, dose response, biochemical, cell-free fluorescence (AID 449749); type: functional
T3 sequence (P9WMR3 whole entry): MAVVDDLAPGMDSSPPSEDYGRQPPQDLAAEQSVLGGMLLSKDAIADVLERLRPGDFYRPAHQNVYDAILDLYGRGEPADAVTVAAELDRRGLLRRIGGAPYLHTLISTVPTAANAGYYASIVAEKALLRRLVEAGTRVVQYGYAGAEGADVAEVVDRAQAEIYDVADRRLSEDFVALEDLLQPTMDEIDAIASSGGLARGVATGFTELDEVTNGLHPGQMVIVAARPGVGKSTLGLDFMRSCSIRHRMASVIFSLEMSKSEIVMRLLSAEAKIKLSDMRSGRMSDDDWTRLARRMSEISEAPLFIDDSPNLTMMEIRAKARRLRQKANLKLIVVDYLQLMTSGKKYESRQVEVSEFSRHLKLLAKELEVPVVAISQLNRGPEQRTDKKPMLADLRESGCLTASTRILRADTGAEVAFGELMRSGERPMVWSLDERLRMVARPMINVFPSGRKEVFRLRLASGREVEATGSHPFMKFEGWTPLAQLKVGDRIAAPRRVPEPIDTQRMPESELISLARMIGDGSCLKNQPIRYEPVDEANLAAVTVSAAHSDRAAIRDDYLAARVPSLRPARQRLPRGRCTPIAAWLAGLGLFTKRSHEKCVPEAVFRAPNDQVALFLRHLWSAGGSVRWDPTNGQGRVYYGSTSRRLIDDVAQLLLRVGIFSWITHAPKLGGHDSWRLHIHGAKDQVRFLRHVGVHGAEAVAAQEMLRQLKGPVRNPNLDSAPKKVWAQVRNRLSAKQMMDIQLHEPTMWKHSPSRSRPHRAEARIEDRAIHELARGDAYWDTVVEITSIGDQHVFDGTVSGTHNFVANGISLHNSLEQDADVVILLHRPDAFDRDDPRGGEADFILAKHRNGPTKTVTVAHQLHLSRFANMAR

Protein RecA = target: T4, Protein RecA (Mycobacterium tuberculosis, UniProt P9WHJ3); assay: Fluorescence Cell-Free Homogeneous Dose Retest to Identify Inhibitors of RecA-Intein Splicing Activity. [Related pubchem assays (depositor defined):AID2097, AID2223, AID489010, AID492950]; type: functional
T4 sequence (P9WHJ3 whole entry): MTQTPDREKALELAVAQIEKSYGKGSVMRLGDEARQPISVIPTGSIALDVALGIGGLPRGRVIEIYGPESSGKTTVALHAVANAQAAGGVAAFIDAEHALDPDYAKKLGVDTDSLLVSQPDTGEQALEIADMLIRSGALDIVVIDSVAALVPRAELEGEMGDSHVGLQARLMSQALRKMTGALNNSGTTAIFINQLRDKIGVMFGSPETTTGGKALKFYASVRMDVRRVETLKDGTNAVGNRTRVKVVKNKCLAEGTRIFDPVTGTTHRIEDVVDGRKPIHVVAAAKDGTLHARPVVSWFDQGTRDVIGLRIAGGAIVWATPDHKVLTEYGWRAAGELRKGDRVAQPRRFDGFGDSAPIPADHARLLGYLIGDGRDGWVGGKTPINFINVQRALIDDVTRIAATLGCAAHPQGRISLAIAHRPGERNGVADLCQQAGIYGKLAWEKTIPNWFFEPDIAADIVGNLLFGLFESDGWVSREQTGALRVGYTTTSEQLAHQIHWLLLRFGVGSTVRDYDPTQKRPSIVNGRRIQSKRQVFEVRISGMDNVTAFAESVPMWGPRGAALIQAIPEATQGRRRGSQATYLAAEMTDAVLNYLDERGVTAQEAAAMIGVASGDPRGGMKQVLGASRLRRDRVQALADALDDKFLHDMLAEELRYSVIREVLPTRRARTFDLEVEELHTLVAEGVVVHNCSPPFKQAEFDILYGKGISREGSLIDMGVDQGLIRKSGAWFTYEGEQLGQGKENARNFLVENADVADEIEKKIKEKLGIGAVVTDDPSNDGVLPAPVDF

[4] = target: T5, RNA-binding protein pos-1 (Caenorhabditis elegans, UniProt G5EF15); assay: inhibitors of POS-1/mex-3 RNA binding, dose response, biochemical, fluorescence polarization (AID 1964);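 note: purified POS-1 fused to maltose binding protein made in E. coli; potency of compounds blocking POS-1 binding to fluorescent RNA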
T5 sequence (G5EF15 whole entry): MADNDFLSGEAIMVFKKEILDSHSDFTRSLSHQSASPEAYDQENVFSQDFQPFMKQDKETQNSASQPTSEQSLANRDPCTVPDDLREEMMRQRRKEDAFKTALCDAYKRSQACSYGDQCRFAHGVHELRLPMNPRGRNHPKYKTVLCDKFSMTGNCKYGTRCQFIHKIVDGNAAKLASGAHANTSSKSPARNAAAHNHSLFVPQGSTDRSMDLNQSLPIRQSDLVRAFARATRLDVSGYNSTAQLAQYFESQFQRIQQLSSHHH

[5] = target: T6, Zinc finger protein mex-5 (Caenorhabditis elegans, UniProt Q9XUB2); assay: MEX-5/TCR-2 RNA interaction inhibitors, dose response, biochemical, C. elegans, fluorescence polarization (AID 1960)
T6 sequence (Q9XUB2 whole entry): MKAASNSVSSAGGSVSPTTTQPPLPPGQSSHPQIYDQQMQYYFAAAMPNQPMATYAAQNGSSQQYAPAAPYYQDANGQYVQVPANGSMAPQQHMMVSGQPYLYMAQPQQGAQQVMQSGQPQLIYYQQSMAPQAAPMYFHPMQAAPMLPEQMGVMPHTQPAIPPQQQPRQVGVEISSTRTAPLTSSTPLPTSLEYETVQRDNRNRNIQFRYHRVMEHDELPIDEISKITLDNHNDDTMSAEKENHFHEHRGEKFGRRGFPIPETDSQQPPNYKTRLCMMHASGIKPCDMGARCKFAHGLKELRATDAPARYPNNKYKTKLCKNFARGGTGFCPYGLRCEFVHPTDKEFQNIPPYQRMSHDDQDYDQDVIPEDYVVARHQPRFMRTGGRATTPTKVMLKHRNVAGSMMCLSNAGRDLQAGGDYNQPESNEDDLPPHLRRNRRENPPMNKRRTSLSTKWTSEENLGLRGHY

[6] = target: Luciferin 4-monooxygenase (Photinus pyralis, UniProt P08659); assay: firefly luciferase enzyme inhibitors, dose response, biochemical, luminescence (AID 1891)
[7] = Luminescence Cell-Based Dose Confirmation HTS to Identify Inhibitors of Platelet Dense Granule Release. [Related pubchem assays: 1663 (Primary HTS), 1678 (Summary of Project)]; type: functional
[8] = target: T7, Carboxy-terminal domain RNA polymerase II polypeptide A small phosphatase 1 (Homo sapiens, UniProt Q9GZU7); assay: inhibitors of CTDSP1, concentration-response testing, biochemical assay, absorbance-based, actives from ultra-high-throughput screening (AID 540297); type: functional
T7 sequence (Q9GZU7 whole entry): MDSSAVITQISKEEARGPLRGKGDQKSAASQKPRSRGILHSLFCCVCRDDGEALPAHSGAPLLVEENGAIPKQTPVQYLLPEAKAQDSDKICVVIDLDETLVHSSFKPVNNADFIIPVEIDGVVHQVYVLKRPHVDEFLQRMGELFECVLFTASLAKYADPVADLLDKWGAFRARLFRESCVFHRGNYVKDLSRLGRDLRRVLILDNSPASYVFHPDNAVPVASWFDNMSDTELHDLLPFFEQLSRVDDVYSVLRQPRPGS

[9] = Luminescence Cell-Based Dose Confirmation HTS to Identify Activators of 5'UTR Stem-Loop Driven Alpha-Synuclein mRNA Translation in H4 Neuroglioblastoma Cells. [Related pubchem assays: 1829 (Project Summary), 1814 (Primary HTS)]; type: functional
[10] = Luminescence Cell-Based Dose Response HTS to Identify Activators of Luciferase Translation or Activity in H4 […] Cells. [Related pubchem assays: 1829 (Project Summary), 1814 (Primary HTS)]; type: functional
H4 = assay: Luminescence Cell-Based Dose Response HTS to Identify Activators of 5'UTR Stem-Loop Driven Prion Protein mRNA Translation in H4 Neuroglioblastoma Cells. [Related pubchem assays: 1829 (Project Summary), 1814 (Primary HTS)]; type: functional; details: Homo sapiens
[11] = target: Induced myeloid leukemia cell differentiation protein Mcl-1 (Homo sapiens, UniProt Q07820); type: functional
Induced myeloid leukemia cell differentiation protein Mcl-1, sequence (Q07820 whole entry): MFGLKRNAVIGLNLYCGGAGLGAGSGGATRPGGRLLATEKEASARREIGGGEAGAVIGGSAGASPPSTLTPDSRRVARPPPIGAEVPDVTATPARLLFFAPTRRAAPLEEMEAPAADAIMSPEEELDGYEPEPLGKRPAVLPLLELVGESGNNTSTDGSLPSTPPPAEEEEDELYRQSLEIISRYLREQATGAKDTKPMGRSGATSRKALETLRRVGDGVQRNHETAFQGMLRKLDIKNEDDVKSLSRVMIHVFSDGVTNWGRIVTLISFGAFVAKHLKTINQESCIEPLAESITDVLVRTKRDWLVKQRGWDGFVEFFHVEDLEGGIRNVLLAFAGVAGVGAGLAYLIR

Genome polyprotein, sequence (P29990 2492-3391 limits assumed): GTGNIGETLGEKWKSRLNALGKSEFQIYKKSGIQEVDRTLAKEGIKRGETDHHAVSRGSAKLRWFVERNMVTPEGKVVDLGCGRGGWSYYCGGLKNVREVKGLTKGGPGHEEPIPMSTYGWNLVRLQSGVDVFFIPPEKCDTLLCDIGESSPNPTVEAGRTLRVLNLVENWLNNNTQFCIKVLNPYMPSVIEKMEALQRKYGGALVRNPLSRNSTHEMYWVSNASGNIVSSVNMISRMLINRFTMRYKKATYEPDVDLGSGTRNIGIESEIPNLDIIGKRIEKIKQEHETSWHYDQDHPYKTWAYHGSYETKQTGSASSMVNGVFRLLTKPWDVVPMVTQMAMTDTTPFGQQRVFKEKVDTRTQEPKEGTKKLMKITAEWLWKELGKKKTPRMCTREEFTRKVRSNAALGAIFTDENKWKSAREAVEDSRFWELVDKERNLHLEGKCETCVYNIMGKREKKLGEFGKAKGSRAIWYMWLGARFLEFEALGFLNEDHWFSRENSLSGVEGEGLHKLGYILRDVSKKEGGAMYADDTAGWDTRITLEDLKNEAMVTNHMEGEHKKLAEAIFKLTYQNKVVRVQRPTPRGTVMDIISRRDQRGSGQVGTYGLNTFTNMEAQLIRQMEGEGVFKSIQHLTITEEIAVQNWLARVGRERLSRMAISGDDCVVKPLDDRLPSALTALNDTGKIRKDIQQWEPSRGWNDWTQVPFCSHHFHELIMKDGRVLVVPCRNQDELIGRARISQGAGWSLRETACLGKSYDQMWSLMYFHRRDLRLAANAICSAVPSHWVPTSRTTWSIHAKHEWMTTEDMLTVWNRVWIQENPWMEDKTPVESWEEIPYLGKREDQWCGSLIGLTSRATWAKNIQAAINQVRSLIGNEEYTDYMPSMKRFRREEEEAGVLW
T2 sequence (P11940 whole entry): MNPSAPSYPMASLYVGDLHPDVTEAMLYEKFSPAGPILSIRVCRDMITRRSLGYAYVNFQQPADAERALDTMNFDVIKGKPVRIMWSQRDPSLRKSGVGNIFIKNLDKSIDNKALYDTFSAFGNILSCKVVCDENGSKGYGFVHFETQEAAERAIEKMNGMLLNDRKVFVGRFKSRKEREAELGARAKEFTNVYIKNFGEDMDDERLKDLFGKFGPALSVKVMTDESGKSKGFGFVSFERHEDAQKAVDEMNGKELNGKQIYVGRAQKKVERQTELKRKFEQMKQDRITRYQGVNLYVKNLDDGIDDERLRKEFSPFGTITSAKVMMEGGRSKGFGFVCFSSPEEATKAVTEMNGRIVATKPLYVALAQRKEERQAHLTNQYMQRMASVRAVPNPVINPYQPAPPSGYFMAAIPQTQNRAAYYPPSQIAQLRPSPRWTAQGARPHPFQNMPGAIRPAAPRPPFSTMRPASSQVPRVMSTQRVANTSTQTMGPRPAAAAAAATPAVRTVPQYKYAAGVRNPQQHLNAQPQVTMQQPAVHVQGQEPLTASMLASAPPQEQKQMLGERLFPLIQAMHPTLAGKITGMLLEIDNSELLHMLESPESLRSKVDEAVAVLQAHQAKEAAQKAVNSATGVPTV
Large T antigen, sequence (P03070 whole entry): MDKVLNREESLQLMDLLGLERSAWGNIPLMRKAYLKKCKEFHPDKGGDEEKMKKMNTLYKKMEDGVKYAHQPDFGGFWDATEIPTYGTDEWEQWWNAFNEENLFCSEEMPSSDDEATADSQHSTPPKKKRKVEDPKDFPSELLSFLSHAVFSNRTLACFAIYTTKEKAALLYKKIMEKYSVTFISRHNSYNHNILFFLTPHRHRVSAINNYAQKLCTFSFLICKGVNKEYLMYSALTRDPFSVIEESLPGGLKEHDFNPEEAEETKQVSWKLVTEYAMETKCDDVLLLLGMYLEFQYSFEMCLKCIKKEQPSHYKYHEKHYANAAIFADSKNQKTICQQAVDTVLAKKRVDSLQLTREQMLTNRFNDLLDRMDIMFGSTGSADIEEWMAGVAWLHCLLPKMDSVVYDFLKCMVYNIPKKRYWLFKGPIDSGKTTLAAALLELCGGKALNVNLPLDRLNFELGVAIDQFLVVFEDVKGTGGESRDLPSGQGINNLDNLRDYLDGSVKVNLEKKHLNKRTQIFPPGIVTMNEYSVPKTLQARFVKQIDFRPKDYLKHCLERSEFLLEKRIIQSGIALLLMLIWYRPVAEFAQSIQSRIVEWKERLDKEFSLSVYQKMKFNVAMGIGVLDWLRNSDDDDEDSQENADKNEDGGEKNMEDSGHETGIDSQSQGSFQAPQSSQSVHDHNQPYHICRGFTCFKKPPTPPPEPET
Luciferin 4-monooxygenase, sequence (P08659 whole entry): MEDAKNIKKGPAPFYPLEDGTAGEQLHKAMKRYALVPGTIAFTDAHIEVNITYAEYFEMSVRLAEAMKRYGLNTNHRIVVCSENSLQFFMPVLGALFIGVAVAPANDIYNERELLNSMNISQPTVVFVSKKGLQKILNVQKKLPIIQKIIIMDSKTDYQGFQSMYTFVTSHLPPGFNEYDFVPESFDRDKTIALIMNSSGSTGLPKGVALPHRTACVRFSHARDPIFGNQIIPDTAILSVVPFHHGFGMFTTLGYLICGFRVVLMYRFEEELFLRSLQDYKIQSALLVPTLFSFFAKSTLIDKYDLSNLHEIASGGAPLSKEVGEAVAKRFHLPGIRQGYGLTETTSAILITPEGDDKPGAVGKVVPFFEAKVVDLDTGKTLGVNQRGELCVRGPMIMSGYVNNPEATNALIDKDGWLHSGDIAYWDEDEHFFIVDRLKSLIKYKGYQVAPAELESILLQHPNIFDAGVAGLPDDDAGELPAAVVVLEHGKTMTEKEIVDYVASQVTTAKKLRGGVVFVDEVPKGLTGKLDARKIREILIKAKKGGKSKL

O=C(O)CCN1C(=O)CC(N2C(=O)/C(=C/c3ccc(Cl)cc3)SC2=S)C1=O (configuration not stated)
IC50 (Leucine aminopeptidase): 22.5 µM (active)

COc1ccc(N2C(=O)NC(=O)/C(=C\c3ccccc3[N+](=O)[O-])C2=O)cc1
IC50 (Genome polyprotein): 32 µM (active)

CN(C)c1ccc(C=C2C(=O)NC(=S)NC2=O)cc1[N+](=O)[O-]
IC50 (Leucine aminopeptidase): 76.6 µM (active)
IC50 (Large T antigen): 73.7 µM (active)
IC50 (Genome polyprotein): 12.8 µM (active)
IC50 [1]: > 66 µM (inactive)
IC50 [2]: > 66 µM (inactive)

O=C(OCC(=O)N1CCCC1)c1ccccc1OCc1ccccc1
IC50 (Leucine aminopeptidase): 4.38 µM (active)

CCc1ccc(N2C(=O)C(Cl)=C(N3CCOCC3)C2=O)cc1
AC50 [3]: 6.99 µM (active)
EC50 (Protein RecA): 0.34 µM (active)
IC50 (Genome polyprotein): 45.1 µM (active)

Cc1ccc(N=C(S)c2ccc3ccccc3n2)c(C)c1
EC50 [4]: > 300 µM (not active)
EC50 [5]: > 300 µM (not active)
EC50 [6]: > 112 µM (not active)
EC50 [7]: > 112 µM (not active)
IC50 [1]: > 66 µM (inactive)
IC50 [2]: > 66 µM (inactive)

Cc1c(Nc2nc3ccccc3nc2NS(=O)(=O)c2cccc(Cl)c2)c(=O)n(-c2ccccc2)n1C
IC50 (Leucine aminopeptidase): 21.3 µM (active)

COc1ccccc1NC(=O)CSc1sc2c(O)cc(=O)[nH]c2c1C#N
IC50 [8]: 6.42 µM (active)

COc1cc(/C=C2\C(=N)N3N=C(S(C)(=O)=O)SC3=NC2=O)ccc1OS(=O)(=O)c1ccc(C)cc1
IC50 (Large T antigen): 64.6 µM (active)
IC50 [8]: 3.81 µM (active)

CC(C)c1ccc(-c2cc(C(=O)NN3CCN(C)CC3)c3ccccc3n2)cc1
EC50 [9]: 3.59 µM (active)
EC50 [10]: 3.27 µM (active)
EC50 (H4): 9.4 µM (active)
EC50 [6]: 18.2 µM (active)
EC50 [7]: 5.93 µM (active)

O=C(Cn1c(=O)oc2cc(S(=O)(=O)N3CCCCCC3)ccc21)NC1CCCCCCC1
IC50 [8]: 9.64 µM (active)

Cc1ccc(-c2[nH]nc3c2C(c2cccnc2)C(C#N)=C(N)O3)cc1 (configuration not stated)
IC50 (Leucine aminopeptidase): 25.8 µM (active)
AC50 [3]: 5.17 µM (active)
EC50 (Protein RecA): 1.3 µM (active)

CC[C@H](C)NC(=O)c1ccc(Cn2c(=S)[nH]c3c([nH]c4ccc(OC)cc43)c2=O)cc1
IC50 [11]: 5.25 µM (active)
IC50 [8]: 4.67 µM (active)
